Experimental data reported in patent US9683025B2, “Methods and compositions for treating cancer and inflammatory diseases” (The Regents of the University of Colorado, A Body Corporate, priority 2013, dated 2017).
Where two headings read alike, the source gives them in different places. Where a SMILES comes first, the peptide text is derived from it. Where no end group is shown, it is not given here.

What was measured:
CtBP-E1A interaction = CtBP-E1A interaction (Homo sapiens, UniProt Q13363); experiment: CtBP-E1A interaction inhibition (AlphaScreen / fluorescence polarization competition assay); format: binding
Procedure: The ability of peptides to inhibit CtBP binding can be monitored by two biochemical assays. An AlphaScreen assay (Perkin-Elmer) was developed that is capable of detecting the CtBP-E1A interaction. Purified GST-E1A and 6xHis-CtBP are incubated with glutathione-conjugated donor beads and nickel-chelated acceptor beads respectively. The interaction between CtBP and E1A brings the donor and acceptor beads in close proximity, which produces a fluorescence signal after laser excitation and can be detected using the EnVision plate reader. A peptide that inhibits this interaction will limit the proximity of the beads and thus a loss in fluorescence signal will occur. In addition to the alphascreen, a fluorescence polarization based assay with a fluorescein-labeled 14mer E1A peptide ([…] (SEQ ID NO: 1)) was also developed. Purified 6xHis-CtBP is incubated with the fluorescein-labeled E1A peptide and changes in the polarization value of the labeled peptide are detected using the EnVision plate reader. A decrease in peptide binding to CtBP can be detected by an […], and used to monitor peptide inhibition. IC50 values of designed peptides can be determined using either of these assays through the addition of increasing amounts in each well and monitoring the degree of inhibition of the CtBP-E1A interaction.
Multiple amino acid sequences may appear at positions outside the conserved peptide motif. The most frequently occurring amino acids in these positions are used to design the peptides that bind CtBP with the highest affinity. The affinity of these new peptides is compared to the original 14mer E1A peptide (SEQ ID NO:1) by comparing the IC50 of these peptides in inhibiting the CtBP/E1A protein interaction in a competition assay. The peptide identified from phage display that competes with the CtBP/E1A protein interaction better than the original 14mer E1A peptide is selected and conjugated to the cell penetrating peptide of the present invention. Also provided in Table 3 are […] for selected peptides.
The ability of peptides to inhibit CtBP binding can be monitored by two biochemical assays. An AlphaScreen assay (Perkin-Elmer) was developed that is capable of detecting the CtBP-E1A interaction. Purified GST-E1A and 6xHis-CtBP are incubated with glutathione-conjugated donor beads and nickel-chelated acceptor beads respectively. The interaction between CtBP and E1A brings the donor and acceptor beads in close proximity, which produces a fluorescence signal after laser excitation and can be detected using the EnVision plate reader. A peptide that inhibits this interaction will limit the proximity of the beads and thus a loss in fluorescence signal will occur. In addition to the alphascreen, a fluorescence polarization based assay with a fluorescein-labeled 14mer E1A peptide ([…] (SEQ ID NO: 1)) was also developed. Purified 6xHis-CtBP is incubated with the fluorescein-labeled E1A peptide and changes in the polarization value of the labeled peptide are detected using the EnVision plate reader. A decrease in peptide binding to CtBP can be detected by an […], and used to monitor peptide inhibition. IC50 values of designed peptides can be determined using either of these assays through the addition of increasing amounts in each well and monitoring the degree of inhibition of the CtBP-E1A interaction. Also provided in Table 4 are IC50 for selected peptides.

CtBP [1] = target: T1, CtBP (Homo sapiens, UniProt Q13363); experiment: Fluorescence polarization competition of unlabeled peptide with FITC-labeled 14mer peptide; format: binding
T1 construct: 6xHis
Procedure: (§1) Additional peptides were tested for in vitro inhibitory potency (Table 5). For Kd determination, FITC-labeled peptide (FITC-peptide) was incubated with varying concentrations of CtBP. The fluorescence polarization values of the FITC-peptide were measured and plotted against CtBP concentration to determine Kd of the FITC-peptide with CtBP using the Prism program. […] For IC50 determination, a fluorescence polarization assay was utilized. […] Increasing concentrations of unlabeled peptide were added to compete with the FITC-labeled peptide, leading to a decreased fluorescence polarization value.

CtBP [2] = target: T1, CtBP; experiment: Fluorescence polarization Kd determination of FITC-peptide with CtBP; format: binding; details: read-out: Kd
Procedure: as §1

[3] = tested on: IMQ-based psoriasis model; experiment: IMQ-based psoriasis model; format: in vivo, mouse; details: treated mice versus PBS control
Procedure: To elucidate the molecular mechanisms for the Pep1-E1A blocker, H&E and immunostaining for proliferative and inflammatory markers was performed.

[4] = tested on: IMQ-based psoriasis model; experiment: IMQ-based psoriasis model; format: in vivo, mouse; details: Example 12, subcutaneously applied on the skin, FIG. 15B
[5] = IC50 value, Table 3, inhibition of CtBP/E1A protein interaction

## CC(=O)NCCCC[C@H](NC(=O)[C@H](CS)NC(=O)[C@H](CO)NC(=O)[C@H](CC(C)C)NC(=O)[C@H](CC(=O)O)NC(=O)[C@H](CC(C)C)NC(=O)[C@@H]1CCCN1C(=O)[C@H](CCC(N)=O)NC(=O)CNC(=O)[C@@H]1CCCN1C(=O)[C@@H](N)CCC(=O)O)C(=O)N[C@@H](CCCNC(=N)N)C(=O)N1CCC[C@H]1C(=O)N[C@@H](CCCNC(=N)N)C(=O)O [K239-Acetylated] (H-EPGQPLDLSCK(Ac)RPR-OH; N-terminus and C-terminus assumed)
CtBP-E1A interaction; [5]
  IC50: 26.6 µM

## CC(C)C[C@H](NC(=O)[C@H](CC(=O)O)NC(=O)[C@H](CC(C)C)NC(=O)[C@@H]1CCCN1C(=O)[C@H](CCC(N)=O)NC(=O)CNC(=O)[C@@H]1CCCN1C(=O)[C@@H](N)CCC(=O)O)C(=O)N[C@@H](CO)C(=O)N[C@@H](CS)C(=O)N[C@@H](C)C(=O)N[C@@H](CCCNC(=N)N)C(=O)N1CCC[C@H]1C(=O)N[C@@H](CCCNC(=N)N)C(=O)O [Peptide K239A] (H-EPGQPLDLSCARPR-OH; N-terminus and C-terminus assumed)
CtBP-E1A interaction; [5]
  IC50: 21.9 µM

## CC(C)C[C@H](NC(=O)[C@H](CC(=O)O)NC(=O)[C@H](CC(C)C)NC(=O)[C@@H]1CCCN1C(=O)[C@H](CCC(N)=O)NC(=O)CNC(=O)[C@@H]1CCCN1C(=O)[C@@H](N)CCC(=O)O)C(=O)N[C@@H](CO)C(=O)N[C@@H](CS)C(=O)N[C@@H](CCC(N)=O)C(=O)N[C@@H](CCCNC(=N)N)C(=O)N1CCC[C@H]1C(=O)N[C@@H](CCCNC(=N)N)C(=O)O [Peptide K239Q] (H-EPGQPLDLSCQRPR-OH; N-terminus and C-terminus assumed)
CtBP-E1A interaction; [5]
  IC50: 12 µM

## CC(C)C[C@H](NC(=O)[C@H](CC(=O)O)NC(=O)[C@H](CC(C)C)NC(=O)[C@@H]1CCCN1C(=O)CNC(=O)[C@H](CC(=O)O)NC(=O)CNC(=O)CN)C(=O)N[C@@H](CS)C(=O)N[C@@H](CS)C(=O)N[C@@H](CCCNC(=N)N)C(=O)N[C@@H](CCCCN)C(=O)N[C@@H](CCCNC(=N)N)C(=O)N1CCC[C@H]1C(=O)O [SEQ ID NO:133] (H-GGDGPLDLCCRKRP-OH; N-terminus and C-terminus assumed)
CtBP [1]
  IC50: 18.8 µM

## CC(C)C[C@H](NC(=O)[C@H](CC(N)=O)NC(=O)[C@H](CC(C)C)NC(=O)[C@@H]1CCCN1C(=O)[C@H](CCC(=O)O)NC(=O)[C@H](CC(=O)O)NC(=O)[C@@H](NC(=O)[C@@H]1CCCN1)[C@@H](C)O)C(=O)N[C@@H](CO)C(=O)N[C@@H](CC(C)C)C(=O)N[C@@H](CCCCN)C(=O)N[C@@H](CCCNC(=N)N)C(=O)N1CCC[C@H]1C(=O)N[C@@H](CCCNC(=N)N)C(=O)O [SEQ ID NO:134] (H-PTDEPLNLSLKRPR-OH; N-terminus and C-terminus assumed)
CtBP [1]
  IC50: 4.4 µM

## CC(C)C[C@H](NC(=O)[C@H](CC(=O)O)NC(=O)[C@H](CC(C)C)NC(=O)[C@@H]1CCCN1C(=O)[C@H](CCC(N)=O)NC(=O)CNC(=O)[C@@H]1CCCN1C(=O)[C@H](CCC(=O)O)NC(=O)[C@H](CCC(=O)O)NC(=O)[C@H](CC(C)C)NC(=O)[C@H](CCC(N)=O)NC(=O)[C@@H]1CCCN1C(=O)[C@@H]1CCCN1C(=O)[C@H](CCCNC(=N)N)NC(=O)[C@H](CCCNC(=N)N)NC(=O)[C@H](CCCNC(=N)N)NC(=O)[C@H](CCC(N)=O)NC(=O)[C@H](CCCNC(=N)N)NC(=O)[C@H](CCCNC(=N)N)NC(=O)[C@H](CCCCN)NC(=O)[C@H](CCCCN)NC(=O)[C@H](CCCNC(=N)N)NC(=O)CN)C(=O)N[C@@H](CO)C(=O)N[C@@H](CS)C(=O)N[C@@H](CCCCN)C(=O)N[C@@H](CCCNC(=N)N)C(=O)N1CCC[C@H]1C(=O)N[C@@H](CCCNC(=N)N)C(=O)N[C@@H](CC(=O)O)C(=O)N[C@@H](Cc1ccc(O)cc1)C(=O)N[C@@H](CCCCN)C(=O)N[C@@H](CC(=O)O)C(=O)N[C@@H](CC(=O)O)C(=O)N[C@@H](CC(=O)O)C(=O)N[C@@H](CC(=O)O)C(=O)N[C@@H](CCCCN)C(=O)O [Tat-E1A fusion] (H-GRKKRRQRRRPPQLEEPGQPLDLSCKRPRDYKDDDDK-OH; N-terminus and C-terminus assumed)
CtBP-E1A interaction; IC50 of inhibition of the CtBP/E1A interaction, FIG. 3, peptide purified from E. coli
  IC50: ~7.7 µM
CtBP-E1A interaction; [5]
  IC50: 1.7 µM

## CC(C)C[C@H](NC(=O)[C@H](CC(=O)O)NC(=O)[C@H](CC(C)C)NC(=O)[C@@H]1CCCN1C(=O)[C@H](CCC(N)=O)NC(=O)CNC(=O)[C@@H]1CCCN1C(=O)[C@H](CCC(=O)O)NC(=O)[C@H](CCC(=O)O)NC(=O)[C@H](CC(C)C)NC(=O)[C@H](CCC(N)=O)NC(=O)[C@@H]1CCCN1C(=O)[C@@H]1CCCN1C(=O)[C@H](CCCNC(=N)N)NC(=O)[C@H](CCCNC(=N)N)NC(=O)[C@H](CCCNC(=N)N)NC(=O)[C@H](CCC(N)=O)NC(=O)[C@H](CCCNC(=N)N)NC(=O)[C@H](CCCNC(=N)N)NC(=O)[C@H](CCCCN)NC(=O)[C@H](CCCCN)NC(=O)[C@H](CCCNC(=N)N)NC(=O)CN)C(=O)N[C@@H](CO)C(=O)N[C@@H](CS)C(=O)N[C@@H](CCC(N)=O)C(=O)N[C@@H](CCCNC(=N)N)C(=O)N1CCC[C@H]1C(=O)N[C@@H](CCCNC(=N)N)C(=O)N[C@@H](CC(=O)O)C(=O)N[C@@H](Cc1ccc(O)cc1)C(=O)N[C@@H](CCCCN)C(=O)N[C@@H](CC(=O)O)C(=O)N[C@@H](CC(=O)O)C(=O)N[C@@H](CC(=O)O)C(=O)N[C@@H](CC(=O)O)C(=O)N[C@@H](CCCCN)C(=O)O [Tat-E1A-Flag (K239Q)] (H-GRKKRRQRRRPPQLEEPGQPLDLSCQRPRDYKDDDDK-OH; N-terminus and C-terminus assumed)
CtBP-E1A interaction; [5]
  IC50: 7.7 µM

## CC(C)C[C@H](NC(=O)[C@H](CCC(=O)O)NC(=O)[C@H](CC(=O)O)NC(=O)[C@H](CC(C)C)NC(=O)[C@@H]1CCCN1C(=O)[C@H](CCC(N)=O)NC(=O)CNC(=O)[C@@H]1CCCN1C(=O)[C@H](CCC(=O)O)NC(=O)[C@H](CCC(=O)O)NC(=O)[C@H](CC(C)C)NC(=O)[C@H](CCC(N)=O)NC(=O)[C@@H]1CCCN1C(=O)[C@@H]1CCCN1C(=O)[C@H](CCCNC(=N)N)NC(=O)[C@H](CCCNC(=N)N)NC(=O)[C@H](CCCNC(=N)N)NC(=O)[C@H](CCC(N)=O)NC(=O)[C@H](CCCNC(=N)N)NC(=O)[C@H](CCCNC(=N)N)NC(=O)[C@H](CCCCN)NC(=O)[C@H](CCCCN)NC(=O)[C@H](CCCNC(=N)N)NC(=O)CN)C(=O)N[C@@H](CS)C(=O)N[C@@H](CCCCN)C(=O)N[C@@H](CCCNC(=N)N)C(=O)N1CCC[C@H]1C(=O)N[C@@H](CCCNC(=N)N)C(=O)N[C@@H](CC(=O)O)C(=O)N[C@@H](Cc1ccc(O)cc1)C(=O)N[C@@H](CCCCN)C(=O)N[C@@H](CC(=O)O)C(=O)N[C@@H](CC(=O)O)C(=O)N[C@@H](CC(=O)O)C(=O)N[C@@H](CC(=O)O)C(=O)N[C@@H](CCCCN)C(=O)O [Tat-E1A-Flag (LS-EL)] (H-GRKKRRQRRRPPQLEEPGQPLDELCKRPRDYKDDDDK-OH)
CtBP-E1A interaction; [5]
  IC50: > 200 µM
CtBP-E1A interaction; IC50 value, Table 4, inhibition of CtBP-E1A interaction
  IC50: > 200 µM

## EPGQPLSLSCKRPR [SEQ ID NO:135]
CtBP [1]; Table 5, 50% reduction of fluorescence polarization value
  IC50: did not inhibit CtBP

## EQTVPVDLSVARPR [SEQ ID NO:132]
CtBP [2]; Table 5, FITC-peptide with CtBP
  Kd: 2.2 µM
CtBP [2]; affinity to CtBP1, Example 12
  Kd: 2.2 µM

## GRKKRRQRRRPPQGGEQTVPVDLSVARPRGL (also: conjugated to FITC) [Tat-E1A peptide]
[3]
  resistance to IMQ-induction of psoriasis: showed resistance
[4]
  psoriasis-like phenotype: significantly reduced

## GSHMKETWWETWWTEWSQPKKKRKVLEEPGQPLDLSCQRPRDYKDDDDK [Pep1-E1A-Flag (K239Q) GSHM v.1]
[3]
  resistance to IMQ-induction of psoriasis: showed resistance

## KETWWETWWTEWSQPKKKRKVLEEPGQPLDLSCKRPRDYKDDDDK [Pep1-E1A-Flag]
CtBP-E1A interaction; [5]
  IC50: 26.6 µM
